Columns and labels:
[1] = system: rice (Oryza sativa. L Japonica brand; Nipponbare) seeds; experiment: Effective concentration of Imazamox on rice plant body under aseptic culture conditions (seed germination); format: in vivo
Procedure: Based on 1/2 MS solid medium (MS mix (Sigma), sucrose 15.0 g/L, Gelrite (Wako Pure Chemical Industries, Ltd.) 4.0 g/L, pH 5.8), media in 9 stages (0 mg/L, 0.5 mg/L, 1 mg/L, 2 mg/L, 4 mg/L, 5 mg/L, 10 mg/L, 20 mg/L, 30 mg/L) with different Imazamox concentrations were produced. Successively, chaff of rice (Oryza sativa. L Japonica brand; Nipponbare) seeds was removed, the seeds were shaken in 70% ethanol for 1 min, and sterilized by immersing in 2.5% sodium hypochlorite for 20-30 min while allowing for penetration. […]
From the above, it was determined that the effective concentration of Imazamox under the aseptic culture conditions for rice plant body was 0.5 mg/L.

rice callus = experiment: Effective concentration of Imazamox on rice callus under aseptic culture conditions; format: cell-based, Oryza sativa; conditions: 2N6 medium, 28 days; for proliferation state of the callus: 31.5° C.
Procedure: Based on 2N6 solid medium (mentioned earlier), media in 4 stages (0 mg/L, 30 mg/L, 50 mg/L, 70 mg/L) with different Imazamox concentrations were produced. Callus was induced from the scutellum part of rice seed (mentioned earlier), inoculated to 2N6 solid medium added with Imazamox, cultured at 31.5° C. for 28 days in the dark all day, and the proliferation state of the callus was confirmed.
From the above, it was determined that the effective concentration of Imazamox for rice callus was 70 mg/L.

Compound: COCc1cnc(C2=NC(C)(C(C)C)C(=O)N2)c(C(=O)O)c1 (stereo not drawn) [Imazamox]
- number of seeds, germination (7 days later) ([1]; Imazamox 0.5 mg/L in 1/2 MS medium, 24 seeds): 0
- germination circumstances ([1]; Imazamox 0.5 mg/L or more, 25° C., 7 days): browning of embryo stem and whitening of coleoptile was confirmed in all seeds
- survival rate (%) ([1]; Imazamox 0.5 mg/L, 7 days): 0%
- number of seeds, germination (7 days later) ([1]; Imazamox 1 mg/L in 1/2 MS medium, 23 seeds): 0
- survival rate (%) ([1]; Imazamox 1 mg/L, 7 days): 0%
- number of seeds, germination (7 days later) ([1]; Imazamox 2 mg/L in 1/2 MS medium, 24 seeds): 0
- survival rate (%) ([1]; Imazamox 2 mg/L, 7 days): 0%
- number of seeds, germination (7 days later) ([1]; Imazamox 4 mg/L in 1/2 MS medium, 24 seeds): 0
- survival rate (%) ([1]; Imazamox 4 mg/L, 7 days): 0%
- number of seeds, germination (7 days later) ([1]; Imazamox 5 mg/L in 1/2 MS medium, 24 seeds): 0
- survival rate (%) ([1]; Imazamox 5 mg/L, 7 days): 0%
- number of seeds, germination (7 days later) ([1]; Imazamox 10 mg/L in 1/2 MS medium, 24 seeds): 0
- survival rate (%) ([1]; Imazamox 10 mg/L, 7 days): 0%
- number of seeds, germination (7 days later) ([1]; Imazamox 20 mg/L in 1/2 MS medium, 24 seeds): 0
- survival rate (%) ([1]; Imazamox 20 mg/L, 7 days): 0%
- number of seeds, germination (7 days later) ([1]; Imazamox 30 mg/L in 1/2 MS medium, 24 seeds): 0
- survival rate (%) ([1]; Imazamox 30 mg/L, 7 days): 0%
- effective concentration of Imazamox for rice plant body ([1]; aseptic culture conditions, 1/2 MS medium, 7 days): 0.5 mg/L
- effective concentration of Imazamox for rice callus (rice callus): 70 mg/L
- proliferation state of the callus (rice callus; Imazamox 50 mg/L or below): mitotic proliferation of callus was observed
- proliferation state of the callus (rice callus; Imazamox 70 mg/L): mitotic proliferation was inhibited
